Active and inactive are the calls of the source. The rule behind the calls is not given here.
Columns and labels:
Format in all cases: functional, organism-based
Escherichia coli [1] = assay: Inhibitory activity against growth of Escherichia coli MC4100 in presence 0.8M NaCl; Strong inhibition
Escherichia coli [2] = assay: Inhibitory activity against growth of Escherichia coli MC4100 without NaCl; No effect
Sinorhizobium meliloti [3] = assay: Osmoprotective activity of compound in Rhizobium meliloti 102F34 by restoring its growth rate was evaluated; Highly osmoprotective
Sinorhizobium meliloti [4] = assay: Inhibition of the growth of Rhizobium meliloti was observed at 1 mM by inoculation of 0.5 M NaCl; No growth was observed
Sinorhizobium meliloti [5] = assay: Osmoprotective activity of compound in Rhizobium meliloti 102F34 by restoring its growth rate was evaluated; Highly toxic

With `C[N+](C)(C)CC(=O)O` the Activity (Escherichia coli [1]) was “Highly osmoprotective”, the Activity (Escherichia coli [2]) was “inactive” and the Activity (Sinorhizobium meliloti [3]) was “Highly osmoprotective”.
With `C[P+](C)(C)CC(=O)[O-]` the Activity (Sinorhizobium meliloti [4]) was “No growth”, the Activity (Escherichia coli [1]) was “No growth” and the Activity (Escherichia coli [2]) was “inactive”. For the same compound, the Activity (Sinorhizobium meliloti [5]) was “Toxic”.
With `C[As+](C)(C)CC(=O)[O-]` the Activity (Sinorhizobium meliloti [4]) was “No growth”, the Activity (Escherichia coli [1]) was “No growth” and the Activity (Escherichia coli [2]) was “inactive”. The Activity (Sinorhizobium meliloti [5]) was “Toxic”.

Source: ChEMBL document CHEMBL1130291, “Synthesis of trimethylated phosphonium and arsonium analogues of the osmoprotectant glycine betaine; contrasted biological activities in two bacterial species” (Bioorg Med Chem Lett, 1997)
